From ChEMBL document CHEMBL5365427, “Discovery and Structural Optimization of Covalent ZAP-70 Kinase Inhibitors against Psoriasis” (J Med Chem, 2023)
Active and inactive are the calls of the source. The calls are words filed in the database; no cut-off is given here.

Assays:
[1] = system: Splenocyte; assay: Immunosuppressive activity in BALB/c mouse Splenocyte assessed as inhibition of concanavalin A induced T-cell proliferation incubated for 48 hrs by [3H]-thymidine incorporation based beta scintillation counter analysis; format: functional
[2] = target: T1, Tyrosine-protein kinase SYK (Homo sapiens, UniProt P43405); assay: Inhibition of SYK (unknown origin) using ULight-TK peptide as substrate at 1 uM incubated for 120 mins in presence of ATP by Lance Ultra Kinase assay relative to control
[3] = target: Mitogen-activated protein kinase 10 (Homo sapiens) (UniProt P53779); assay: Inhibition of JNK3 (unknown origin) at 1 uM relative to control
Chain of Mitogen-activated protein kinase 10 (Homo sapiens) (P53779 whole entry): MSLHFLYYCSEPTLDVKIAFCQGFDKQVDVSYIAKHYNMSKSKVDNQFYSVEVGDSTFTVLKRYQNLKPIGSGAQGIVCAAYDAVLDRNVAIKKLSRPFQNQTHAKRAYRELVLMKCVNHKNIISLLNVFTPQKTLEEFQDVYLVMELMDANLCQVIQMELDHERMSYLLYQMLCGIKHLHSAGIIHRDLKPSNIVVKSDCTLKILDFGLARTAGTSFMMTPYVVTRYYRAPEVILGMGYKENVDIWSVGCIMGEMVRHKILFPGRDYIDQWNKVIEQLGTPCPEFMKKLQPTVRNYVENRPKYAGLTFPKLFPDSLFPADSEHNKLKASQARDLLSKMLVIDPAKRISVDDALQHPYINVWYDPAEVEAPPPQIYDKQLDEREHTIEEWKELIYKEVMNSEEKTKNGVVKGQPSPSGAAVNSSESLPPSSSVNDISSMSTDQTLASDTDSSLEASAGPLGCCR

[4] = target: Tyrosine-protein kinase receptor UFO (Homo sapiens) (UniProt P30530); assay: Inhibition of AXL (unknown origin) at 1 uM relative to control
Chain of Tyrosine-protein kinase receptor UFO (Homo sapiens) (P30530 whole entry): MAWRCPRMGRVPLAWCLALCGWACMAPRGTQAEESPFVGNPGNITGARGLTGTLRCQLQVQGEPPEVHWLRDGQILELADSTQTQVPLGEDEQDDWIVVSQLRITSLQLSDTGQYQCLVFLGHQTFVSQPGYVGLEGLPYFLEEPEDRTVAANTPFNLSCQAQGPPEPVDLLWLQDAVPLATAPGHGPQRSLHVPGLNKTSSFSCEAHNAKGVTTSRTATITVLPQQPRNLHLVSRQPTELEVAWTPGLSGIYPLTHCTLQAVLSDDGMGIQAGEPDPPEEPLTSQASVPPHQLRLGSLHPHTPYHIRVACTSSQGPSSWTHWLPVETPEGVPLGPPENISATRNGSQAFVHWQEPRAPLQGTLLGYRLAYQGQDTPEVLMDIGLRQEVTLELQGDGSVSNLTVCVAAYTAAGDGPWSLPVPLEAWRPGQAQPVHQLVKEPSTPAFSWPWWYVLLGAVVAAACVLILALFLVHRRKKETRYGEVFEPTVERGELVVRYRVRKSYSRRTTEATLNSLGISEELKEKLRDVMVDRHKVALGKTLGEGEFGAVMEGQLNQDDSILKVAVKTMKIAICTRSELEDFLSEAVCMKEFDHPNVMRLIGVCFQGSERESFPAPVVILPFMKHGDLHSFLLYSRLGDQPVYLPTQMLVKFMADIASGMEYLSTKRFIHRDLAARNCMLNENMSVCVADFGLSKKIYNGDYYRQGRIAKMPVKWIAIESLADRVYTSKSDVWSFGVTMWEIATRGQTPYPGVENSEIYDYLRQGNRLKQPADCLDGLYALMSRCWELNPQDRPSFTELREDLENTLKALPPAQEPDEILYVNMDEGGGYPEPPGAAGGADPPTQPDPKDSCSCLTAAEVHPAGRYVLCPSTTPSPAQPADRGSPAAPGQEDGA

[5] = system: Mus musculus; assay: Anti-inflammatory activity in imiquimod-induced BALB/c mouse psoriasis model assessed as […] in skin thickness at TOP administration, 2 % applied for 7 days by hematoxylin and eosin staining based assay; format: functional, organism-based; details: time 7.0 day
[6] = system: Splenocyte; assay: Immunosuppressive activity in LPS-induced BALB/c mouse Splenocyte assessed as effect on CD69 expression at 100 to 400 nM incubated for 48 hrs by flow cytometry analysis; format: functional, cell-based; details: dose 100-400 nM
[7] = system: Mus musculus; assay: Anti-inflammatory activity in imiquimod-induced BALB/c mouse psoriasis model assessed as decrease in splenomegaly at TOP administration, 2 % applied for 7 days; format: functional, organism-based; details: time 7.0 day
[8] = target: T2, Serine/threonine-protein kinase PLK4 (Homo sapiens) (UniProt O00444); assay: Inhibition of PLK4 (unknown origin) at 1 uM relative to control
T2 sequence (whole entry): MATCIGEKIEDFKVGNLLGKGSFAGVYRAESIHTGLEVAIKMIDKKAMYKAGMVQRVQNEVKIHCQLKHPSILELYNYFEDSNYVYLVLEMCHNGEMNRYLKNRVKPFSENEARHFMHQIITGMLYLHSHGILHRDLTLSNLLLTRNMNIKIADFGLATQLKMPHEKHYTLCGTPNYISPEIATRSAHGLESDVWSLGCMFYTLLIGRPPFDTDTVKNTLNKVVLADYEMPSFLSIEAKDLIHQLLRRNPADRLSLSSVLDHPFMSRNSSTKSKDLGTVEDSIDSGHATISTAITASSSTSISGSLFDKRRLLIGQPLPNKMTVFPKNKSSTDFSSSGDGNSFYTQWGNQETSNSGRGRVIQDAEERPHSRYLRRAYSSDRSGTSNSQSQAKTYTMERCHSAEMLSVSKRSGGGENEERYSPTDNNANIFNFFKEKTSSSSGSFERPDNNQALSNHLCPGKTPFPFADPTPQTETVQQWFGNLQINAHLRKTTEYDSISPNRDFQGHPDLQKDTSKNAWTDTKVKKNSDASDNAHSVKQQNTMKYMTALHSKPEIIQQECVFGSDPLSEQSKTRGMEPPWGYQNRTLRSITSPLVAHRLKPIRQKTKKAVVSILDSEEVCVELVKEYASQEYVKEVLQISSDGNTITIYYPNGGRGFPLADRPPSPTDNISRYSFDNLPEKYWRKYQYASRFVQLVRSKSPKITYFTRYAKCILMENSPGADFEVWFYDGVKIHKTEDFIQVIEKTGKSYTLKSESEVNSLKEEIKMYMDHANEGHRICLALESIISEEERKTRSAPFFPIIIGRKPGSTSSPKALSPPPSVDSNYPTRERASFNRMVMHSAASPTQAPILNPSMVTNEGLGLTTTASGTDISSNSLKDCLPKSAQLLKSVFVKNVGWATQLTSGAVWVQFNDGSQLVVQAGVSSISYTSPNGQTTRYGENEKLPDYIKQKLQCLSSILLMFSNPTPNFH

[9] = target: T1, Tyrosine-protein kinase SYK; assay: Inhibition of SYK (unknown origin) using ULight-TK peptide as substrate incubated for 120 mins in presence of ATP by Lance Ultra Kinase assay
[10] = target: Mitogen-activated protein kinase 9 (Homo sapiens) (UniProt P45984); assay: Inhibition of JNK2 (unknown origin) at 1 uM relative to control
Chain of Mitogen-activated protein kinase 9 (Homo sapiens) (P45984 whole entry, looked up): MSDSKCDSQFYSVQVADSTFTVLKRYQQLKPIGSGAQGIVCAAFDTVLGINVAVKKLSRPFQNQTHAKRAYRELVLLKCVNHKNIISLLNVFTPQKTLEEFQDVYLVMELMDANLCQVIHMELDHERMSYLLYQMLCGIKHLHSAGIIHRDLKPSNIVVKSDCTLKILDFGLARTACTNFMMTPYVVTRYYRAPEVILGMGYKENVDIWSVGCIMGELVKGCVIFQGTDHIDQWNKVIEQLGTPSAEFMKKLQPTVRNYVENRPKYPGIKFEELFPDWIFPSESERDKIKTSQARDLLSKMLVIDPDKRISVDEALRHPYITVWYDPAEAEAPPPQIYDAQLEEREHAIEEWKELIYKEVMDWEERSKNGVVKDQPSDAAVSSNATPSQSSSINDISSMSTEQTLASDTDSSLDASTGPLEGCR

[11] = system: Splenocyte; assay: Immunosuppressive activity in anti-CD3/CD28 stimulated BALB/c mouse Splenocyte assessed as reduction in IL-17A cytokine level incubated for 48 hrs by ELISA assay; format: functional, cell-based
[12] = system: Mus musculus; assay: Anti-inflammatory activity in imiquimod-induced BALB/c mouse psoriasis model assessed as reduction in immune cell infiltration at TOP administration, 2 % applied for 7 days by hematoxylin and eosin staining based assay; format: functional, organism-based; details: time 7.0 day
[13] = system: Mus musculus; assay: Anti-inflammatory activity in imiquimod-induced BALB/c mouse psoriasis model assessed as reduction in skin inflammation at TOP administration, 2 % applied for 7 days; format: functional, organism-based; details: time 7.0 day
[14] = system: Splenocyte; assay: Immunosuppressive activity in BALB/c mouse Splenocyte assessed as reduction in frequency of CD69 positive CD4 positive T cells at 400 nM incubated for 48 hrs by flow cytometry analysis (reference value: 21.3%); format: functional; parameters: scale not given: the % may be the effect or the level left
[15] = system: Splenocyte; assay: Immunosuppressive activity in anti-CD3/CD28 stimulated BALB/c mouse Splenocyte assessed as reduction in IFN-gamma cytokine level incubated for 48 hrs by ELISA assay; format: functional, cell-based
[16] = target: T3, Tyrosine-protein kinase ZAP-70 (Homo sapiens) (UniProt P43403); assay: Inhibition of ZAP-70 (unknown origin) at 1 uM relative to control
T3 sequence (whole entry): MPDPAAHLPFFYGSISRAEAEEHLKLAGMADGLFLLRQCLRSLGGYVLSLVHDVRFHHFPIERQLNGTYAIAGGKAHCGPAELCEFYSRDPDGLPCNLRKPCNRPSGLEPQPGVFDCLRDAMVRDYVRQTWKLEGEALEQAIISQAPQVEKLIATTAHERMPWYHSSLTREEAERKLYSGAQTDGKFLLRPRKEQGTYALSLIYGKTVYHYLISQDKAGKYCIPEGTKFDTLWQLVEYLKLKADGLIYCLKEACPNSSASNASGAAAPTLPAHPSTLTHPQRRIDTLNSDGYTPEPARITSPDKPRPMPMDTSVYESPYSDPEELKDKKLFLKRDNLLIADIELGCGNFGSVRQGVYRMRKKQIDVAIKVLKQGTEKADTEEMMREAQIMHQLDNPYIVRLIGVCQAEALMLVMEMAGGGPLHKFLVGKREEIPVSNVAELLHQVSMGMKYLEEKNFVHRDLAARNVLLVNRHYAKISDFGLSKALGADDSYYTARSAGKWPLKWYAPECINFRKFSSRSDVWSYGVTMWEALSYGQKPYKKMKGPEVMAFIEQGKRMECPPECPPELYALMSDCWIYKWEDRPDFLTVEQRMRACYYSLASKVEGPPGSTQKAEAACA

inhibition [2]: 72.5% | inhibition [3]: > 90% | inhibition [4]: > 90% | inhibition [8]: > 90% | IC50 [9]: 1160 nM | inhibition [10]: > 90% | inhibition [16]: 98.3%
Compound: C=CC(=O)Nc1cc(CNc2nc(Nc3ccc(N4CCOCC4)c(OC)c3)c(C(N)=O)c3nccn23)ccc1Cl
IC50 [1]: 64 nM | Activity [5]: Active | Activity [6]: inactive | Activity [7]: Active | Activity [11]: Dose-Dependent Effect | Activity [12]: Active | Activity [13]: Active | Activity [14]: 10.8% | Activity [15]: Dose-Dependent Effect
